According to patent US11117907B2, “Curcuminoid-inspired synthetic compounds as anti-tumor agents” (University of North Florida Board of Trustees, priority 2017, dated 2021):
Where two headings read alike, the source gives them in different places.

What was measured:
RPMI8226 [1] = test: Cell viability assay to determine EC50 (CellTiter-Glo 2.0), RPMI8226; assay type: cell-based; settings: Homo sapiens, RPMI-8226; Table 7, run number 2; 72 h
Description: (§1) RPMI-8266 (Multiple myeloma cell line, MM) and PBCMs cells were seeded into 384-well culture plates at 2×10^3 cell/well in quadruplicate, and incubated at 5% CO2, 37° C. The culture media was replaced with compounds (ranges from 0-10,000 nM) and incubated for 72 h. Bortezomib was spiked in control. […] CellTiter-Glo® 2.0 reagent was added at equal volume to the cell culture medium present in each well and the plate was left to incubate at room temperature for 10 minutes to stabilize the luminescent signal.
(§2) Cell lines and PBCMs (peripheral blood mononuclear cells from healthy donors as non-cancer CONTROL) were seeded in quadruplicate (technical replicates). CellTiter-Glo® 2.0 reagent equal to the volume of cell culture medium present in each well was added and the plate was left to incubate at room temperature for 10 min to stabilize the luminescent signal. Luminescent signal/intensity from the 384-well plate was read on a plate reader. Cells/cell lines used: BCWM.1 (Waldenstrom macroglobulinemia cell line, WM); RPMI-8266 (Multiple myeloma cell line, MM); RS4; 11 (Acute lymphoblastic leukemia, ALL)* reported to be dependent on Bcl-2 protein.

[2] = test system: MM cell lines (MM1.S, KMS11, RPMI-8226); settings: cited from earlier work
RPMI8226 [3] = settings: control; typically; read-out: EC50 in RPMI8266, typical value; cited from earlier work
PBMC [4] = settings: comparison value; read-out: IC50 of PBMCs; cited from earlier work
PBMC [5] = test: Cell viability assay (CellTiter-Glo 2.0), PBMC from healthy donors; assay type: cell-based; settings: Homo sapiens, Table 7, run number 2, 72 h
Description: Peripheral blood mononuclear cells (PBMCs) were collected from healthy, i.e. non-cancerous, donors (CONTROL).
as §1
as §2, with “Cells/cell lines used: BCWM.1 (Waldenstrom macroglobulinemia cell line, WM); RPMI-8266 (Multiple myeloma cell line, MM); RS4; 11 (Acute lymphoblastic leukemia, ALL)* reported to be dependent on Bcl-2 protein.” left out
Cell lines and PBCMs (peripheral blood mononuclear cells from healthy donors as non-cancer CONTROL) were seeded in quadruplicate (technical replicates). […] Luminescent signal/intensity from the 384-well plate was read on a plate reader. […]

EC50 (RPMI8226 [1]): 10.6 nM
Compound: CC(C)C[C@H](NC(=O)[C@H](Cc1ccccc1)NC(=O)c1cnccn1)B(O)O [Bortezomib]
in vitro tumor-specificity profile ([2]; MM cells versus PBMCs): 2-3 fold
IC50 ([2]; comparison value, read-out: IC50 in MM cells): ~2 nM
EC50 (RPMI8226 [3]): 10 to 16 nM
IC50 (PBMC [4]): 4 to 6 nM
EC50 (PBMC [5]): 60.5 nM
